Test results reported in ChEMBL document CHEMBL1154011, “Discovery and structural analysis of Eph receptor tyrosine kinase inhibitors” (Bioorg Med Chem Lett, 2009).
The source made the active and inactive calls. The rule behind the calls is not given here.

Tests used:
[1] = target: Tyrosine-protein kinase FRK (Homo sapiens) (UniProt P42685); assay: Inhibition of Frk at 10 uM
[2] = target: Mitogen-activated protein kinase 14 (Homo sapiens) (UniProt Q16539); assay: Inhibition of p38alpha at 10 uM
[3] = target: Macrophage colony-stimulating factor 1 receptor (Homo sapiens) (UniProt P07333); assay: Inhibition of CSF1R at 10 uM
Sequence of Macrophage colony-stimulating factor 1 receptor (Homo sapiens) (P07333 whole entry): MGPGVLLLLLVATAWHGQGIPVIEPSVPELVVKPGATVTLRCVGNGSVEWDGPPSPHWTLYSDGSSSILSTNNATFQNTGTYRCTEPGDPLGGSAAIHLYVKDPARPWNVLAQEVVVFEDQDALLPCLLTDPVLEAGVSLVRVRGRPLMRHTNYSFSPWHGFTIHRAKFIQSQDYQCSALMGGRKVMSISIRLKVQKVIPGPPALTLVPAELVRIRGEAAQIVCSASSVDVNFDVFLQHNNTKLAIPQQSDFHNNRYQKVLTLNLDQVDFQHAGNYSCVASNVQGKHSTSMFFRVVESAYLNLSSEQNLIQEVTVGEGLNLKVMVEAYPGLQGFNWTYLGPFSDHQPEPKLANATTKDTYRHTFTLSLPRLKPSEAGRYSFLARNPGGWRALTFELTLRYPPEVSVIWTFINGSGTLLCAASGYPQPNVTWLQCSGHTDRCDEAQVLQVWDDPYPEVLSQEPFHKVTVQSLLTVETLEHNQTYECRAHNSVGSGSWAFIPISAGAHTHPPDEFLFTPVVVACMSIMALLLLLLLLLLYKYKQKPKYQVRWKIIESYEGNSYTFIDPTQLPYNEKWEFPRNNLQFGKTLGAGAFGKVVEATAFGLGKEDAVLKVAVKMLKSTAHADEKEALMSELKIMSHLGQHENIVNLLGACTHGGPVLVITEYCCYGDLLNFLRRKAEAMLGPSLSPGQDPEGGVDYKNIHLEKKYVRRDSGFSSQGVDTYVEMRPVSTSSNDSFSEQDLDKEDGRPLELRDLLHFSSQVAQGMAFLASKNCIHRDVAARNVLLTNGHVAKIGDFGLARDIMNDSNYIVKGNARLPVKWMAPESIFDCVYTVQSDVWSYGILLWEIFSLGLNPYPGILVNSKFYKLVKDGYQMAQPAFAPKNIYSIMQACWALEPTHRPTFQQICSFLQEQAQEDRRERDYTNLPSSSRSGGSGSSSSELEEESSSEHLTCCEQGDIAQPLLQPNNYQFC

[4] = target: Mitogen-activated protein kinase 11 (Homo sapiens) (UniProt Q15759); assay: Inhibition of p38beta at 10 uM
[5] = target: Bcr/Abl fusion protein (Homo sapiens) (UniProt P00519+P11274); assay: Inhibition of Bcr-Abl expressed in mouse BA/F3 cells; format: cell-based; conditions: BaF3
[6] = target: Platelet-derived growth factor receptor beta (Homo sapiens) (UniProt P09619); assay: Inhibition of PDGFRbeta at 10 uM
[7] = target: RAF proto-oncogene serine/threonine-protein kinase (Homo sapiens) (UniProt P04049); assay: Inhibition of RAF1 at 10 uM
[8] = target: Ephrin type-B receptor 2 (Homo sapiens) (UniProt P29323); assay: Inhibition of EphB2 at 10 uM
[9] = target: Tyrosine-protein kinase Lck (Homo sapiens) (UniProt P06239); assay: Inhibition of Lck at 10 uM
[10] = target: Ephrin type-A receptor 2 (Homo sapiens) (UniProt P29317); assay: Inhibition of EphA2 at 10 uM
[11] = target: T1, Ephrin type-B receptor 1 (Homo sapiens) (UniProt P54762); assay: Inhibition of EphB1 at 10 uM
T1 sequence (whole entry): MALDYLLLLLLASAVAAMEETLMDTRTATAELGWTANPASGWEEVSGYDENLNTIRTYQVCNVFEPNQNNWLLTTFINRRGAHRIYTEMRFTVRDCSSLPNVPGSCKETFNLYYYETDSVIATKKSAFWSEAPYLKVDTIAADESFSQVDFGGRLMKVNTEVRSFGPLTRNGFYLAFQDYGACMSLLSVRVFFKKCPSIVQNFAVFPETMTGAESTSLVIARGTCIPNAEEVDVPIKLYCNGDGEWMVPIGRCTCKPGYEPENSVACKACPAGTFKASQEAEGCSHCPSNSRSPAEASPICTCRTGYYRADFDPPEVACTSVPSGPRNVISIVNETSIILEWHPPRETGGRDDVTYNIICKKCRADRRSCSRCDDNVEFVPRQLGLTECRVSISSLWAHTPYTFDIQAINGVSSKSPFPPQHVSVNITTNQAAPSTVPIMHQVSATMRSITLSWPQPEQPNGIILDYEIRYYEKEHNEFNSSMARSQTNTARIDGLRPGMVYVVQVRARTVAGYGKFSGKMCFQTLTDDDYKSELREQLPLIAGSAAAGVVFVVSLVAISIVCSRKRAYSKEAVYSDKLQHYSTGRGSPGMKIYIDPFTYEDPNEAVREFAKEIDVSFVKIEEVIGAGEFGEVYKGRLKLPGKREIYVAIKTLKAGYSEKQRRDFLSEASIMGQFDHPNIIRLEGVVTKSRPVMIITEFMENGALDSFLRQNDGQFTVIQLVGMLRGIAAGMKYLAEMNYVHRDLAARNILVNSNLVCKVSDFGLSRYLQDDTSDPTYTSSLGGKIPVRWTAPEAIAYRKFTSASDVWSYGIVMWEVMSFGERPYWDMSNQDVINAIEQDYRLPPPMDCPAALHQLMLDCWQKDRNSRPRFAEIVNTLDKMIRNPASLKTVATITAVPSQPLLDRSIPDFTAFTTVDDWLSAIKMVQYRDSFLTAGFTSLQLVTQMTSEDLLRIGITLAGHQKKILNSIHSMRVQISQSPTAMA

[12] = target: Discoidin domain-containing receptor 2 (Homo sapiens) (UniProt Q16832); assay: Inhibition of DDR2 at 10 uM
[13] = target: Platelet-derived growth factor receptor alpha (Homo sapiens) (UniProt P16234); assay: Inhibition of PDGFRalpha at 10 uM
[14] = target: Tyrosine-protein kinase ABL1 (Homo sapiens) (UniProt P00519); assay: Inhibition of Abl expressed in mouse BA/F3 cells; format: cell-based; conditions: BaF3
Sequence of Tyrosine-protein kinase ABL1 (Homo sapiens) (P00519 whole entry): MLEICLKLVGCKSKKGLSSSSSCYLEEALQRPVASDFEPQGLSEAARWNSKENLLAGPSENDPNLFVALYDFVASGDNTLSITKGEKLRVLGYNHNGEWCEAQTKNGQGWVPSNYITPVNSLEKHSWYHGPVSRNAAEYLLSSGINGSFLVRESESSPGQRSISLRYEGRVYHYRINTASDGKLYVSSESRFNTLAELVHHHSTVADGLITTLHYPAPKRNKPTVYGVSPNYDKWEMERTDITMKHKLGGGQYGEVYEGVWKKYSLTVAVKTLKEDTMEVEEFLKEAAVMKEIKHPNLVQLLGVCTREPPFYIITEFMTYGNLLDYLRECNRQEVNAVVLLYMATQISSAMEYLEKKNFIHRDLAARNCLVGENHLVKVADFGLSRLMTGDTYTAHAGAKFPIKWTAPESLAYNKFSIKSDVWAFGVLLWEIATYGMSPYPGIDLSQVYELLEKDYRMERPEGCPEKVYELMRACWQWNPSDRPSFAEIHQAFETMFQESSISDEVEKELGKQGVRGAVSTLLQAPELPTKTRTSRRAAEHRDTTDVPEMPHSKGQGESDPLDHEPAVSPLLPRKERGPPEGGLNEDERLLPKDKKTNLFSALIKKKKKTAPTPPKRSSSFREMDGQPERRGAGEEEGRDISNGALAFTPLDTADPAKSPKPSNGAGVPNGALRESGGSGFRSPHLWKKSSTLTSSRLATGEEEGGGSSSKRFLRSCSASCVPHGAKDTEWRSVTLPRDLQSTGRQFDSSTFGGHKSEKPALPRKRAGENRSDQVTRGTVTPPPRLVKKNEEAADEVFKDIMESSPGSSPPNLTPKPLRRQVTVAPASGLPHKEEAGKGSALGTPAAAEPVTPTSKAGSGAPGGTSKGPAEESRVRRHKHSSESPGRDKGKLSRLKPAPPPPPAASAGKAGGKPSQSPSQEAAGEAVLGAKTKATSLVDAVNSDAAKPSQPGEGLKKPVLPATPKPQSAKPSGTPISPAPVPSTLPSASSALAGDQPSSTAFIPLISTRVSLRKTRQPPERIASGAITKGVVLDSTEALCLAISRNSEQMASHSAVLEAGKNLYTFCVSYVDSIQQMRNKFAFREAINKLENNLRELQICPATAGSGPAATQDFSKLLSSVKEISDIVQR

[15] = target: Mast/stem cell growth factor receptor Kit (Homo sapiens) (UniProt P10721); assay: Inhibition of c-kit expressed in mouse BA/F3 cells; format: cell-based; conditions: BaF3
Sequence of Mast/stem cell growth factor receptor Kit (Homo sapiens) (P10721 whole entry): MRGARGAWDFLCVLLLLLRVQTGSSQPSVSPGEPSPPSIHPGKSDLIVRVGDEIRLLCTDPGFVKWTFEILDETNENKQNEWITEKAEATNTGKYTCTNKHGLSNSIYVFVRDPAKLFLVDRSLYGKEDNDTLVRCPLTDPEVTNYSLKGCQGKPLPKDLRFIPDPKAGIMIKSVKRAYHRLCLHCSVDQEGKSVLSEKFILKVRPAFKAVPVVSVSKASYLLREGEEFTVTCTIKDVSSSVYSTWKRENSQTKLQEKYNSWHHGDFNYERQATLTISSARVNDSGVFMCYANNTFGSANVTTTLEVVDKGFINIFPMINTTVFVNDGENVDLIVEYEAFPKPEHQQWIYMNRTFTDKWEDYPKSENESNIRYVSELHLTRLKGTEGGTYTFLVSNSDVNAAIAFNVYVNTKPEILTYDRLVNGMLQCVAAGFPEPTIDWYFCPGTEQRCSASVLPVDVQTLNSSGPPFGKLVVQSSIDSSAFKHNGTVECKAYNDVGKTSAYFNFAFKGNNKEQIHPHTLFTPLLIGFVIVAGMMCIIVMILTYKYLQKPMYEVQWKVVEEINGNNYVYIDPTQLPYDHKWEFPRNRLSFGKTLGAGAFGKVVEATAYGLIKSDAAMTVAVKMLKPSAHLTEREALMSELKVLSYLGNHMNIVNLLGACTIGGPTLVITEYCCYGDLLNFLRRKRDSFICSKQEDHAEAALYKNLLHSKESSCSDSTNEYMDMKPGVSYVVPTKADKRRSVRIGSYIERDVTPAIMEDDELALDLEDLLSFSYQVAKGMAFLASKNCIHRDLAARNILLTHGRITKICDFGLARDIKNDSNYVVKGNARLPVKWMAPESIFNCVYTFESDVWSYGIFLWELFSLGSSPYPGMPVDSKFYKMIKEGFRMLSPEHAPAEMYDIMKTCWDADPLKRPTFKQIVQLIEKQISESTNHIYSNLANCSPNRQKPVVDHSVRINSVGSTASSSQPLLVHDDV

[16] = target: Serine/threonine-protein kinase B-raf (Homo sapiens) (UniProt P15056); assay: Inhibition of b-Raf at 100 uM
Sequence of Serine/threonine-protein kinase B-raf (Homo sapiens) (P15056 whole entry, the tested form may be a part): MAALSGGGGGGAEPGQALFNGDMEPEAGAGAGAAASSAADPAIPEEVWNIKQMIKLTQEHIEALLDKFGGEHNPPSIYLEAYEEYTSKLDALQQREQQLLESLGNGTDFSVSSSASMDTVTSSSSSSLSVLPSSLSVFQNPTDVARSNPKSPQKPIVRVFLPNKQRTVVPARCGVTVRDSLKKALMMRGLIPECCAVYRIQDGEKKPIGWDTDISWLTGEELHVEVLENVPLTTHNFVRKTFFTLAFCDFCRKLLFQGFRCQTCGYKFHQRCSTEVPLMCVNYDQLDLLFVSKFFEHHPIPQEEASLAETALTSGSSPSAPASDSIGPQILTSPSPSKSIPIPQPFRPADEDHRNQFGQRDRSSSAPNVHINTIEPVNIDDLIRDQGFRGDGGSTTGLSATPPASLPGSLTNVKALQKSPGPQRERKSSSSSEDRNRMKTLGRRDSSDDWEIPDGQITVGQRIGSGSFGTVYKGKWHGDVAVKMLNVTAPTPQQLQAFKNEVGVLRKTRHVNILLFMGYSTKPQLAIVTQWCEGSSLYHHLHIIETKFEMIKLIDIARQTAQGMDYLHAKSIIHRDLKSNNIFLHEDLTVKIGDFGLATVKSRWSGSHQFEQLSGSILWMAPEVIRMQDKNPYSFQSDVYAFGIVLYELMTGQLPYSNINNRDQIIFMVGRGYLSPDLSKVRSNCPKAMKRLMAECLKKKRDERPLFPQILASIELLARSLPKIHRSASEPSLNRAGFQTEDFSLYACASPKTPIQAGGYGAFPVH

[17] = target: Mast/stem cell growth factor receptor Kit (Homo sapiens) (UniProt P10721); assay: Inhibition of Kit at 10 uM
[18] = target: Ephrin type-B receptor 3 (Homo sapiens) (UniProt P54753); assay: Inhibition of EphB3 at 10 uM
BaF3 = assay: Inhibition of PDGFR expressed in mouse BA/F3 cells; format: cell-based
[19] = target: Epithelial discoidin domain-containing receptor 1 (Homo sapiens) (UniProt Q08345); assay: Inhibition of DDR1 at 10 uM
[20] = target: Ephrin type-A receptor 8 (Homo sapiens) (UniProt P29322); assay: Inhibition of EphA8 at 10 uM
[21] = target: Ephrin type-A receptor 5 (Homo sapiens) (UniProt P54756); assay: Inhibition of EphA5 at 10 uM
[22] = target: T2, Ephrin type-A receptor 6 (Homo sapiens) (UniProt Q9UF33); assay: Inhibition of EphA6 at 10 uM
T2 sequence (whole entry): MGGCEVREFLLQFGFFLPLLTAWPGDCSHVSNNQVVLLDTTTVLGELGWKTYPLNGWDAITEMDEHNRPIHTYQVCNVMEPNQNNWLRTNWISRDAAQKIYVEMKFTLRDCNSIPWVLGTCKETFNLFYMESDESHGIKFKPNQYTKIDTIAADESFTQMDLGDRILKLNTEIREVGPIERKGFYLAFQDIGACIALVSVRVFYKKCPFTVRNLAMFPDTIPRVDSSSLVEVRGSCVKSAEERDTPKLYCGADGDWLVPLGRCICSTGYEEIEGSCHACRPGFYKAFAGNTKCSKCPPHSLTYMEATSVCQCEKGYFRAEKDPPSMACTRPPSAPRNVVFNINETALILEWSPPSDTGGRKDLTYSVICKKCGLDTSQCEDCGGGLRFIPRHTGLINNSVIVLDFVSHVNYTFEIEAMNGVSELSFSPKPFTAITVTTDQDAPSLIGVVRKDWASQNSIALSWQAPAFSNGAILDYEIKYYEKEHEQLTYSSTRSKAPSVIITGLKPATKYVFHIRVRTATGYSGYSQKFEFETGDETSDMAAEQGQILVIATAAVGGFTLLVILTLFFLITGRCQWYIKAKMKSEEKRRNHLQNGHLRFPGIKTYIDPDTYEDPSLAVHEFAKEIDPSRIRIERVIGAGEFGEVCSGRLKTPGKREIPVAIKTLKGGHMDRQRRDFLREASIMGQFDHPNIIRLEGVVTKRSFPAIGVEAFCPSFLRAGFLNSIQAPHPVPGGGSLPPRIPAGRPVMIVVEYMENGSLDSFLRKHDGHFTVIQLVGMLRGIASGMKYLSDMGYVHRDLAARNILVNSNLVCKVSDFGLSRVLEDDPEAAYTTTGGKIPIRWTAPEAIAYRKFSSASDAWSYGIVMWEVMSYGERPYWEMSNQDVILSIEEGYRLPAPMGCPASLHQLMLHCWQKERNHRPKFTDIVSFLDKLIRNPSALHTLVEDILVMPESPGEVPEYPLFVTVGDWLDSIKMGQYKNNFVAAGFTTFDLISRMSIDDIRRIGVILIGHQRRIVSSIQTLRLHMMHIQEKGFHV

[23] = target: Serine/threonine-protein kinase B-raf (Homo sapiens) (UniProt P15056); assay: Inhibition of Tel fused b-Raf expressed in mouse BA/F3 cells; format: cell-based; conditions: BaF3
[24] = target: Ephrin type-A receptor 7 (Homo sapiens) (UniProt Q15375); assay: Inhibition of EphA7 at 10 uM
Sequence of Ephrin type-A receptor 7 (Homo sapiens) (Q15375 28-998 limits assumed): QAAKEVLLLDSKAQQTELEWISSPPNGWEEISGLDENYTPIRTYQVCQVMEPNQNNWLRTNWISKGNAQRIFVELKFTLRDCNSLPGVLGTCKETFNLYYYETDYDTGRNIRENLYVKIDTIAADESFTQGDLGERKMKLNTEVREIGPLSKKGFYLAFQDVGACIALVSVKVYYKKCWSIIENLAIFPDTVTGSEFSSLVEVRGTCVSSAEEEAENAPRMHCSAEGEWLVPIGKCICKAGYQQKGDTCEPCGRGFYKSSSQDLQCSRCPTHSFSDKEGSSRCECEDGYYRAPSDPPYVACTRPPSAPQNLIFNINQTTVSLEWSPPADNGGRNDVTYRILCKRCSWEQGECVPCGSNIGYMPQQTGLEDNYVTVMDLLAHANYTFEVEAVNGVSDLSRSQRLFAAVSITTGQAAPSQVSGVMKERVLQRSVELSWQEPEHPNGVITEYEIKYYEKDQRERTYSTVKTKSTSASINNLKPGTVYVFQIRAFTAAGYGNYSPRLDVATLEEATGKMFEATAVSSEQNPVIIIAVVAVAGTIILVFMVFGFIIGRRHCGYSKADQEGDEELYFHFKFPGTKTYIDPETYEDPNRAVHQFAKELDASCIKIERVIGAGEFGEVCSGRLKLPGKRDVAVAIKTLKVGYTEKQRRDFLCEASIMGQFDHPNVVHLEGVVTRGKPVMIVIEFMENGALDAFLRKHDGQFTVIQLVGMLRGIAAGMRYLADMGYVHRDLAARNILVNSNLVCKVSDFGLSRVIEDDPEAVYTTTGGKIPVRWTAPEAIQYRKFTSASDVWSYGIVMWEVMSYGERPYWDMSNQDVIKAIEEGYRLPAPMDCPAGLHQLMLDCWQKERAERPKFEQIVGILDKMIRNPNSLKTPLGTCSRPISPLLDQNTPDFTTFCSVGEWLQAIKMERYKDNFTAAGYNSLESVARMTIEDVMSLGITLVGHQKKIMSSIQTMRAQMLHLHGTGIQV

[25] = target: Fibroblast growth factor receptor 2 (Homo sapiens) (UniProt P21802); assay: Inhibition of FGFR2 expressed in mouse BA/F3 cells; format: cell-based; conditions: BaF3
[26] = target: Fibroblast growth factor receptor 3 (Homo sapiens) (UniProt P22607); assay: Inhibition of FGFR3 expressed in mouse BA/F3 cells; format: cell-based; conditions: BaF3
[27] = target: Fibroblast growth factor receptor 4 (Homo sapiens) (UniProt P22455); assay: Inhibition of FGFR4 expressed in mouse BA/F3 cells; format: cell-based; conditions: BaF3

Row | inhibition [5] | inhibition [11] | inhibition [14] | inhibition [15] | inhibition [22] | inhibition [23] | inhibition [24] | Structure (SMILES) | inhibition (BaF3) | further results
1 |  | inactive |  |  | inactive | inactive | inactive | Cc1ccc(C(=O)Nc2cccc(C(F)(F)F)c2)cc1Nc1cncc(C(N)=O)c1 |  | 
2 | Active | inactive | Active | Active | inactive |  | inactive | Cc1ccc(C(=O)Nc2cccc(C(F)(F)F)c2)cc1Nc1ccc2occc(=O)c2c1 | Active | 
3 |  |  | Active | Active |  |  |  | Cc1ccc(C(=O)Nc2cccc(C(F)(F)F)c2)cc1Nc1[nH]cnc2ncnc1-2 | Active | inhibition [25]: Active; inhibition [26]: Active; inhibition [27]: Active

Further lines, the compound ahead of its results:

Row | Structure (SMILES) | inhibition [5] | inhibition [11] | inhibition [14] | inhibition [15] | inhibition [22] | inhibition [23] | inhibition [24] | inhibition (BaF3) | further results
4 | CCN1CCN(Cc2ccc(NC(=O)c3ccc(C)c(NC(=O)c4cncc(-c5cccs5)c4)c3)cc2C(F)(F)F)CC1 | Active | Active | Active | Active |  |  |  | Active | inhibition [1]: Active; inhibition [2]: Active; inhibition [3]: Active; inhibition [4]: Active; inhibition [6]: Active; inhibition [7]: Active; inhibition [8]: Active; inhibition [9]: Active; inhibition [10]: Active; inhibition [12]: Active; inhibition [13]: Active; inhibition [16]: Active; inhibition [17]: Active; inhibition [18]: Active; inhibition [19]: Active; inhibition [20]: Active; inhibition [21]: Active
5 | Cc1cn(-c2cc(NC(=O)c3ccc(C)c(NC(=O)c4ccno4)c3)cc(C(F)(F)F)c2)cn1 |  | inactive |  |  | inactive | inactive | inactive |  | 
